Measured values from US20230330093A1, “APPLICATION OF NITROGEN-CONTAINING SATURATED HETEROCYCLIC COMPOUND” (SHANGHAI PHARMACEUTICALS HOLDING CO., LTD., priority 2020, published 2023).
Like-named read-outs stand apart in the source and are kept apart here.

Columns and labels:
[1] = Plasma pharmacokinetics and bioavailability after intravenous and oral administration; assay type: in vivo, cynomolgus monkeys; conditions: for Vd/F: read-out: Vss/F
Description: Cynomolgus monkeys (3/sex/group: weight 3-5 kg, age 5-6 years old) were obtained from SuZhou XiShan ZhongKe Laboratory Animals (Shanghai, China). Animals were housed for a 7-day acclimation period before study. The monkeys were individually caged in a controlled temperature (18-26° C.) and humidity (50±20%) animal room with an air flow of 10 plus air changes per hour with fresh air. The lighting cycle was 12 h on and 12 h off, and the monkeys were fed once a day in the morning. All animal experiments were performed in accordance with the Animal Care and Use Guidelines set by the AMMS Animal Care and Use Committee.
The compound of Formula I was intravenously or orally administered to cynomolgus monkeys fasted overnight. The doses were 1 mg/kg (intravenous), 1 mg/kg, 3 mg/kg, and 9 mg/kg (oral). Blood samples were collected from a limb vein at 0, 5, and 15 min and at […], 0.5, 1, 2, 3, 4, 6, 8, 12, and 24 h (0.2 mL for each time point) after administration. All blood samples were centrifuged immediately after collection at 10,000×g for 5 min and the plasmas were stored at −75±10° C. until analysis. Plasma samples were prepared by protein precipitation. The concentrations of the compound of Formula I in plasma were determined by the validated liquid chromatography-tandem mass spectrometry method.
The pharmacokinetic parameters such as the area under the plasma concentration-time curve (AUC), maximum plasma concentration (Cmax), time to reach Cmax (Tmax), half-life (T1/2), total body plasma clearance (CL), mean residence time (MRT) and volume of distribution at steady state (Vss) were calculated by non-compartmental analysis with WinNonlin v1.3 (Pharsight, Mountain View, CA, USA). For allometric scaling, animal pharmacokinetic data were simulated by a two-compartment model with the Kinetica 5.1 software package (v.3.0; InnaPhase, Philadelphia, PA, USA).

[2] = 4-week safety study: toxicokinetics (plasma AUC0-24h, Cmax); assay type: in vivo, cynomolgus monkeys
Description: Blood samples were obtained on day1 and day26 at 0, 0.5, 1.5, 3, 5, 7 and 24 h after administration. On each occasion, approximately 1.0 mL of blood was drawn from the vein and collected into EDTA-K2 anticoagulant tubes. The blood samples were put on ice and then centrifuged (3500 rpm, 5 min) at 4° C. to obtain plasma samples, which were kept frozen at about −80° C. until analysis. Toxicokinetics determination of the compound of Formula I was conducted at the Institute of Materia Medica, Chinese Academy of Sciences (Shanghai, China).

[3] = both sexes, cynomolgus monkey, plasma, Monkey, 1 mg/kg iv
[4] = both sexes, cynomolgus monkey, plasma, Monkey, 1 mg/kg po
[5] = both sexes, cynomolgus monkey, plasma, Monkey, 3 mg/kg po
[6] = both sexes, cynomolgus monkey, plasma, Monkey, 9 mg/kg po
[7] = both sexes, cynomolgus, cynomolgus monkey, plasma, Monkey, 3 mg/kg po
[8] = both sexes, cynomolgus, cynomolgus monkey, plasma, Monkey, 9 mg/kg po

## COC(=O)NCCCn1nc([C@@H](C)N(C(=O)[C@H]2CNCCO2)C2CC2)c2ccc(C)nc21 [compound of Formula I]
[1]; Monkey, 1 mg/kg po
  F: 3.3%
[1]; Monkey, 3 mg/kg po
  F: 8.0%
[1]; Monkey, 9 mg/kg po
  F: 11.3%
[1]; both sexes, cynomolgus monkey, plasma, iv, 1 mg/kg, Monkey, 1 mg/kg iv
  half-life: 2.73 h
[1]; both sexes, cynomolgus monkey, plasma, po, 1 mg/kg, Monkey, 1 mg/kg po
  half-life: 2.9 h
[1]; both sexes, cynomolgus monkey, plasma, po, 9 mg/kg, Monkey, 9 mg/kg po
  half-life: 5.99 h
[1]; both sexes, cynomolgus monkey, plasma, po, 9 mg/kg, oral 1, 3, 9 mg/kg, monkey plasma
  half-life: 2.73 to 5.99 h
[1]; [3]
  AUC: 421 ng·h/mL
  Cmax: 466 ng/mL
  MRT: 0.97 h
[1]; both sexes, cynomolgus monkey, plasma, Monkey, 1 mg/kg iv, read-out: Vss
  Vd: 1.86 L/kg
[1]; [4]
  AUC: 11.8 ng·h/mL
  CL/F: 1410 mL/min/kg
  Cmax: 3.99 ng/mL
  MRT: 4.32 h
  Tmax: 1 h
  Vd/F: 366 L/kg
[1]; [5]
  CL/F: 503 mL/min/kg
  Vd/F: 104 L/kg
[1]; [6]
  AUC: 426 ng·h/mL
  Cmax: 263 ng/mL
  MRT: 2.62 h
  Tmax: 1 h
[1]; both sexes, cynomolgus monkey, plasma, intravenous 1 mg/kg, monkeys
  clearance: 32.7 mL/min/kg
[1]; both sexes, cynomolgus monkey, plasma, monkeys, calculated from AUC0-24h after iv and po administration
  bioavailability: 3.3 to 11.3%
[1]; both sexes, cynomolgus, cynomolgus monkey, plasma, po, 3 mg/kg, Monkey, 3 mg/kg po
  half-life: 3.68 h
[1]; [7]
  AUC: 99.4 ng·h/mL
  Cmax: 42.2 ng/mL
  MRT: 3.46 h
  Tmax: 1.3 h
[1]; [8]
  CL/F: 353 mL/min/kg
  Vd/F: 55.5 L/kg
[1]; intravenous 1 mg/kg, monkeys
  distribution volume: 1.86 L/kg
[2]; after consecutive 28 days of administration
  accumulation: the accumulation was not apparent
[2]; dose range of 20 to 450 mg/kg
  Systemic exposure (plasma AUC0-24h and Cmax of parent compound and main metabolite) vs dose: proportionately greater than the magnitude of the dose increments
